Molecular target: T1, NcHMA4 (=TcHMA4) (Noccaea caerulescens, UniProt Q69AX6)
T1 construct: 60-70 kD band on Western blot, so possibly processed; no added tag
T1 sequence (Q69AX6 1-1186): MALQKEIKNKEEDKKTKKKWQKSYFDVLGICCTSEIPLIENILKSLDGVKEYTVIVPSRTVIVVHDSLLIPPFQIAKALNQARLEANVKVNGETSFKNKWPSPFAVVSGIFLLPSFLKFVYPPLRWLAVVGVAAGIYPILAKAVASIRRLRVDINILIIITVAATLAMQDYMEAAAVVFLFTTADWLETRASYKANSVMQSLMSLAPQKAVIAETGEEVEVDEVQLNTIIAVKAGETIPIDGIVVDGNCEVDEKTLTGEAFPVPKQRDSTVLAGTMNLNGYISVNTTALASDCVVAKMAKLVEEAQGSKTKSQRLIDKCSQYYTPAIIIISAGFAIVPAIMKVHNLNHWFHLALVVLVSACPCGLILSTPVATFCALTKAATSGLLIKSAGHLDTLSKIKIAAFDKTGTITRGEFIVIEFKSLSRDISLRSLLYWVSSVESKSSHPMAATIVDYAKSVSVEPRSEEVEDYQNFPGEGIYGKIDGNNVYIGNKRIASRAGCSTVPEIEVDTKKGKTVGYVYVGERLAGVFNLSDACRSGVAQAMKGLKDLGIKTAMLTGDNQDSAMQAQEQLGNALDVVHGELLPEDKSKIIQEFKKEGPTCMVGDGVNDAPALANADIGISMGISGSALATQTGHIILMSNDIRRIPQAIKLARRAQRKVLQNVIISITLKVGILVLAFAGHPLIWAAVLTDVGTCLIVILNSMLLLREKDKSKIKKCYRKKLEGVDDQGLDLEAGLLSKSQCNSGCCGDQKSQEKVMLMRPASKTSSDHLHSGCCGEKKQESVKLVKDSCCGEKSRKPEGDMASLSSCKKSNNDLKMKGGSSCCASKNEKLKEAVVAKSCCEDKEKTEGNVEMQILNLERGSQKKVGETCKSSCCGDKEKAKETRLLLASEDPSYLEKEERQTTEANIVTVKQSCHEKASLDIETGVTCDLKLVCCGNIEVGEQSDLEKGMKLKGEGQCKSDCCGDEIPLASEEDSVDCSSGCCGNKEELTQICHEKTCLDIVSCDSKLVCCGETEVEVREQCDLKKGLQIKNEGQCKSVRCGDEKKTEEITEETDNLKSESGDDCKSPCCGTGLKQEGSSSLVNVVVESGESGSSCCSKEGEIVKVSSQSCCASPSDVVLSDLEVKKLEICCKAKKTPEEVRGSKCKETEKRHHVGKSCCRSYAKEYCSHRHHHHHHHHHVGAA
Assay: ATPase assay by phosphate release; F5 electrochromic dye fluorescence
Format: biochemical
Settings: Cd2+ or Zn2+ activated; dye assay: 5 mM ATP, protein in phosphatidylcholine vesicles, 20 °C

For Nc1ncnc2c1ncn2[C@@H]1O[C@H](COP(=O)(O)OP(=O)(O)OP(=O)(O)O)[C@@H](O)[C@H]1O [ATP], the “ATPase assay by phosphate release; F5 electrochromic dye fluorescence” value was “Addition of ATP caused dropping of fluorescence when added to an assay containing active enzyme”.
